# Patent US4031235A, “Insecticidal substituted acetate compounds” (Sumitomo Chemical Company, Limited, priority 1972, dated 1977)
# Tested on: oriental house flies
# Test: Activity on knock-down against oriental house flies (Experimental Example 5)
# Assay type: in vivo
# Conditions: 0.2% oil preparation, 0.7 ml, 1.5 Kg/cm^2, (70 cm)^3 glass box
# Experimental: (§1) 0.2% oil preparation was prepared from each of the compounds (1), (2), (8), (14), (22), (25), (26), (27), (51), (62), (73), (82), (86), (88), to (90), (92), (94), (96), (111), (119), (121), (165), (175), (180), (184), (185), (195), (200), (201), and (208) and allethrin as a control using deodorized kerosene.
# 20 oriental house flies per group were released in a (70 cm)^3 volume glass box and sprayed with each of the oil preparations prepared in Experimental Example 4 from the compounds of Table 3 below and allethrin in an amount of 0.7 ml under a pressure of 1.5 Kg/cm^2.
row,SMILES,KT50 (50% knock-down time) [s]
1,"CCC(C(=O)OCc1coc(Cc2ccccc2)c1)c1ccccc1 (stereo not drawn) [compound 1, 5'-Benzyl-3'-furylmethyl-α-ethyl-phenylacetate]",167
2,"C#CCc1cc(C(C#C)OC(=O)C(CC)c2ccccc2)co1 (stereo not drawn) [compound 8, 5'-Propargyl-α '-ethynyl-3'-furylmethyl-α-ethyl-phenylacetate]",128
3,"COc1ccc(C(C(=O)OCc2coc(Cc3ccccc3)c2)C(C)C)cc1 (stereo not drawn) [compound 22, 5'-Benzyl-3'-furylmethyl-α-isopropyl-4-methoxyphenylacetate]",136
4,"C#CCc1ccc(C(C#C)OC(=O)C(c2ccc(OC)cc2)C(C)C)o1 (stereo not drawn) [compound 51, 5'-Propargyl-2'-(α'-ethynyl)-furfuryl-α-isopropyl-4-methoxyphenylacetate]",104
5,"COc1ccc(C(C(=O)OCc2cccc(Oc3ccccc3)c2)C(C)C)cc1 (stereo not drawn) [compound 62, 3'-Phenoxybenzyl-α-isopropyl-4-methoxyphenylacetate]",154
6,"COc1ccc(C(C(=O)OCc2ccc(Oc3ccccc3)o2)C(C)C)cc1 (stereo not drawn) [compound 63, 5'-Phenoxyfurfuryl-α-isopropyl-4-methoxyphenylacetate]",140
7,"C=C(C)C(C(=O)OCc1cccc(Oc2ccccc2)c1)c1ccc(OC)cc1 (stereo not drawn) [compound 82, 3'-Phenoxybenzyl-α-isopropenyl-4-methoxyphenylacetate]",132
8,"C=C(C)C(C(=O)OCc1cccc(Oc2ccccc2)c1)c1ccc(Br)cc1 (stereo not drawn) [compound 111, 3'-Phenoxybenzyl-α-isopropenyl-4-bromophenylacetate]",138
9,"C=C(C)C(C(=O)OCc1cccc(Oc2ccccc2)c1)c1ccc(Cl)cc1 (stereo not drawn) [compound 119, 3'-Phenoxybenzyl-α-isopropenyl-4-chlorophenylacetate]",132
10,"C=C(C)C(C(=O)OCc1cccc(Oc2ccccc2)c1)c1ccc(F)cc1 (stereo not drawn) [compound 121, 3'-Phenoxybenzyl-α-isopropenyl-4-fluorophenylacetate]",130
11,CC(C)C(C(=O)OC(C#N)c1cccc(Oc2ccccc2)c1)c1ccc(F)cc1 (centres unmarked) [compound 165],145
12,CCC(C(=O)OCc1coc(Oc2ccccc2)c1)c1ccc(Cl)cc1 (centres unmarked) [compound 180],157
13,CCC(C(=O)OCc1coc(Cc2ccccc2)c1)c1ccc(Cl)cc1 (centres unmarked) [compound 184],142
14,CCC(C(=O)OCc1coc(Cc2ccccc2)c1)c1ccc(F)cc1 (centres unmarked) [compound 185],137

# Tested on: oriental house flies
# Test: Potentiation of insecticidal activity by addition of piperonyl butoxide, topical application (Experimental Example 6)
# Assay type: in vivo
# Conditions: piperonyl butoxide 5 times active ingredient; acetone solution on thoracic dorsal plate
# Experimental: To each of the compounds (22), (51), (62), (63), (82), (86), (125), (150), (160), (176), (177), (178), (184), (185), (191), (195), (200), (201), (204), (208), (210), (212) and (226) was added piperonyl butoxide in an amount of 5 times that of the active ingredient, respectively to prepare an acetone solution having a given concentration. Each of the thus prepared acetone solutions was applied onto a thoracic dosal plate of oriental house flies using a microshringe to observe a synergestic effect on insecticidal activity by piperonyl butoxide.
row,SMILES,Potentiation magnification of insecticidal activity by the addition of piperonyl butoxide
1,"COc1ccc(C(C(=O)OCc2coc(Cc3ccccc3)c2)C(C)C)cc1 (stereo not drawn) [compound 22, 5'-Benzyl-3'-furylmethyl-α-isopropyl-4-methoxyphenylacetate]",5.0
2,"C#CCc1ccc(C(C#C)OC(=O)C(c2ccc(OC)cc2)C(C)C)o1 (stereo not drawn) [compound 51, 5'-Propargyl-2'-(α'-ethynyl)-furfuryl-α-isopropyl-4-methoxyphenylacetate]",7.2
3,"COc1ccc(C(C(=O)OCc2cccc(Oc3ccccc3)c2)C(C)C)cc1 (stereo not drawn) [compound 62, 3'-Phenoxybenzyl-α-isopropyl-4-methoxyphenylacetate]",5.3
4,"COc1ccc(C(C(=O)OCc2ccc(Oc3ccccc3)o2)C(C)C)cc1 (stereo not drawn) [compound 63, 5'-Phenoxyfurfuryl-α-isopropyl-4-methoxyphenylacetate]",4.8
5,"C=C(C)C(C(=O)OCc1cccc(Oc2ccccc2)c1)c1ccc(OC)cc1 (stereo not drawn) [compound 82, 3'-Phenoxybenzyl-α-isopropenyl-4-methoxyphenylacetate]",6.7
6,"C=C(C)C(C(=O)OCc1cccc(Oc2ccccc2)c1)c1ccc(Cl)cc1 (stereo not drawn) [compound 119, 3'-Phenoxybenzyl-α-isopropenyl-4-chlorophenylacetate]",5.5
7,CCC(C(=O)OCc1coc(Cc2ccccc2)c1)c1ccc(Cl)cc1 (centres unmarked) [compound 184],5.6
8,CCC(C(=O)OCc1coc(Cc2ccccc2)c1)c1ccc(F)cc1 (centres unmarked) [compound 185],5.0

# Tested on: Larvae of Mosquito (Culex pipiens)
# Test: Insecticidal activity on larvae of mosquito (Experimental Example 2)
# Assay type: in vivo
# Conditions: 24 h, read-out: LC50 (50% lethal concentration)
# Experimental: An emulsifiable concentrate was prepared by blending each of the compounds (1) to (300) of the present invention, xylol and Sorpol SM-200 (trade name; manufactured by Toho Chemical Co., Ltd.) in a proportion of 25%, 50% and 25% (by weight), respectively. 20 to 25 day-old rice plants after seeding were grown in pots and sprayed with each 300-fold dilute solution of the emulsifiable concentrates thus prepared and a 300-fold dilute solution of carbaryl 30% wettable powder diluted with water as a control commercial agent in an amount of 10 ml/pot in each case and then the pots were covered by a cylindrical metal net. 15 small brown planthoppers (Delphacodes striatella Fallen) per group were released in each of the pots treated with carbaryl wettable powder, and compound (1) to (21) and (102) to (110), while 15 green rice leafhopper (Nephotettix bipuntatus cincticeps Uhler) per group were released in each of the pots treated with the carbaryl wettable powder and compounds (22) to (101) and (111) to (300).
# Of the emulsifiable concentrates prepared in Experimental Example 1, each of those prepared from the compounds of Table 1 below was diluted with water to each of test concentrations and a 200 ml portion thereof was added to a 300 ml volume beaker. 30 larvae of mosquito per group were released in each of the beaker and allowed to stand for 1 day. Survival was observed and a LC50 (50% lethal concentration) was determined by calculating a percent killing in each case. As a control, lindane emulsifiable concentrate was used.
row,SMILES,LC50 [ng/mL]
1,"CCC(C(=O)OCc1coc(Cc2ccccc2)c1)c1ccccc1 (stereo not drawn) [compound 1, 5'-Benzyl-3'-furylmethyl-α-ethyl-phenylacetate]",1.5
2,"C=C(C)C(C(=O)OCc1cccc(Oc2ccccc2)c1)c1ccc(Br)cc1 (stereo not drawn) [compound 111, 3'-Phenoxybenzyl-α-isopropenyl-4-bromophenylacetate]",2.5
3,"C=C(C)C(C(=O)OCc1cccc(Oc2ccccc2)c1)c1ccc(Cl)cc1 (stereo not drawn) [compound 119, 3'-Phenoxybenzyl-α-isopropenyl-4-chlorophenylacetate]",4.4
4,"C=C(C)C(C(=O)OCc1cccc(Oc2ccccc2)c1)c1ccc(F)cc1 (stereo not drawn) [compound 121, 3'-Phenoxybenzyl-α-isopropenyl-4-fluorophenylacetate]",3.7
5,CC(C)C(C(=O)OC(C#N)c1cccc(Oc2ccccc2)c1)c1ccc(F)cc1 (centres unmarked) [compound 165],1.2
6,CCC(C(=O)OCc1coc(Oc2ccccc2)c1)c1ccc(Cl)cc1 (centres unmarked) [compound 180],7.2
7,CCC(C(=O)OCc1coc(Cc2ccccc2)c1)c1ccc(Cl)cc1 (centres unmarked) [compound 184],7.8

# Tested on: not listed separately
# Test: Oral toxicity to mice
# Conditions: mouse, in vivo
row,SMILES,LD50 [mg/kg]
1,"CCC(C(=O)OCc1coc(Cc2ccccc2)c1)c1ccccc1 (stereo not drawn) [compound 1, 5'-Benzyl-3'-furylmethyl-α-ethyl-phenylacetate]",> 1000
2,"C#CCc1cc(C(C#C)OC(=O)C(CC)c2ccccc2)co1 (stereo not drawn) [compound 8, 5'-Propargyl-α '-ethynyl-3'-furylmethyl-α-ethyl-phenylacetate]",750
3,"COc1ccc(C(C(=O)OCc2coc(Cc3ccccc3)c2)C(C)C)cc1 (stereo not drawn) [compound 22, 5'-Benzyl-3'-furylmethyl-α-isopropyl-4-methoxyphenylacetate]",900
4,"COc1ccc(C(C(=O)OCc2cccc(Oc3ccccc3)c2)C(C)C)cc1 (stereo not drawn) [compound 62, 3'-Phenoxybenzyl-α-isopropyl-4-methoxyphenylacetate]",> 1000
5,"COc1ccc(C(C(=O)OCc2ccc(Oc3ccccc3)o2)C(C)C)cc1 (stereo not drawn) [compound 63, 5'-Phenoxyfurfuryl-α-isopropyl-4-methoxyphenylacetate]",> 1000
6,"C=C(C)C(C(=O)OCc1cccc(Oc2ccccc2)c1)c1ccc(OC)cc1 (stereo not drawn) [compound 82, 3'-Phenoxybenzyl-α-isopropenyl-4-methoxyphenylacetate]",> 1000
7,"C=C(C)C(C(=O)OCc1cccc(Oc2ccccc2)c1)c1ccc(Cl)cc1 (stereo not drawn) [compound 119, 3'-Phenoxybenzyl-α-isopropenyl-4-chlorophenylacetate]",> 1000
8,CCC(C(=O)OCc1coc(Cc2ccccc2)c1)c1ccc(Cl)cc1 (centres unmarked) [compound 184],940

# Tested on: adult mosquitoes (Culex pipiens)
# Test: Knock-down of adult mosquitoes by 0.2% oil preparation (Experimental Example 4)
# Assay type: in vivo
# Conditions: 0.2% oil preparation, 0.7 ml, 1.5 Kg/cm^2, (70 Cm)^3 glass box, read-out: mosquitoes knocked down
# Experimental: as §1
row,SMILES,pest or weed control at 0.2 % [%]
1,"CCC(C(=O)OCc1coc(Cc2ccccc2)c1)c1ccccc1 (stereo not drawn) [compound 1, 5'-Benzyl-3'-furylmethyl-α-ethyl-phenylacetate]",> 80
2,"C#CCc1cc(C(C#C)OC(=O)C(CC)c2ccccc2)co1 (stereo not drawn) [compound 8, 5'-Propargyl-α '-ethynyl-3'-furylmethyl-α-ethyl-phenylacetate]",> 80
3,"COc1ccc(C(C(=O)OCc2coc(Cc3ccccc3)c2)C(C)C)cc1 (stereo not drawn) [compound 22, 5'-Benzyl-3'-furylmethyl-α-isopropyl-4-methoxyphenylacetate]",> 80
4,"C#CCc1ccc(C(C#C)OC(=O)C(c2ccc(OC)cc2)C(C)C)o1 (stereo not drawn) [compound 51, 5'-Propargyl-2'-(α'-ethynyl)-furfuryl-α-isopropyl-4-methoxyphenylacetate]",> 80
5,"COc1ccc(C(C(=O)OCc2cccc(Oc3ccccc3)c2)C(C)C)cc1 (stereo not drawn) [compound 62, 3'-Phenoxybenzyl-α-isopropyl-4-methoxyphenylacetate]",> 80
6,"C=C(C)C(C(=O)OCc1cccc(Oc2ccccc2)c1)c1ccc(OC)cc1 (stereo not drawn) [compound 82, 3'-Phenoxybenzyl-α-isopropenyl-4-methoxyphenylacetate]",> 80
7,"C=C(C)C(C(=O)OCc1cccc(Oc2ccccc2)c1)c1ccc(Br)cc1 (stereo not drawn) [compound 111, 3'-Phenoxybenzyl-α-isopropenyl-4-bromophenylacetate]",> 80
8,"C=C(C)C(C(=O)OCc1cccc(Oc2ccccc2)c1)c1ccc(Cl)cc1 (stereo not drawn) [compound 119, 3'-Phenoxybenzyl-α-isopropenyl-4-chlorophenylacetate]",> 80
9,"C=C(C)C(C(=O)OCc1cccc(Oc2ccccc2)c1)c1ccc(F)cc1 (stereo not drawn) [compound 121, 3'-Phenoxybenzyl-α-isopropenyl-4-fluorophenylacetate]",> 80
10,CC(C)C(C(=O)OC(C#N)c1cccc(Oc2ccccc2)c1)c1ccc(F)cc1 (centres unmarked) [compound 165],> 80
11,CCC(C(=O)OCc1coc(Oc2ccccc2)c1)c1ccc(Cl)cc1 (centres unmarked) [compound 180],> 80
12,CCC(C(=O)OCc1coc(Cc2ccccc2)c1)c1ccc(Cl)cc1 (centres unmarked) [compound 184],> 80
13,CCC(C(=O)OCc1coc(Cc2ccccc2)c1)c1ccc(F)cc1 (centres unmarked) [compound 185],> 80
